The subject of data set [1] is BJ. Nature of the data set: BJ-TERT fibroblast viability loss – cell-based, RAS-independent, luminescence, dose response (AID 1933). It is filed as functional. As to conditions: Homo sapiens.
The next data set deals with Beta-galactosidase (Escherichia coli, UniProt Q8VNN2). Put plainly: PubChem AID 485352. It is filed as functional.
Data set [2] concerns BJ. Put plainly: cells. As to conditions: Homo sapiens. It is filed as functional, cell-based.
For data set [3], the target named is T1, Type-1 angiotensin II receptor (Homo sapiens, UniProt P30556).
T1 sequence (P30556 whole entry): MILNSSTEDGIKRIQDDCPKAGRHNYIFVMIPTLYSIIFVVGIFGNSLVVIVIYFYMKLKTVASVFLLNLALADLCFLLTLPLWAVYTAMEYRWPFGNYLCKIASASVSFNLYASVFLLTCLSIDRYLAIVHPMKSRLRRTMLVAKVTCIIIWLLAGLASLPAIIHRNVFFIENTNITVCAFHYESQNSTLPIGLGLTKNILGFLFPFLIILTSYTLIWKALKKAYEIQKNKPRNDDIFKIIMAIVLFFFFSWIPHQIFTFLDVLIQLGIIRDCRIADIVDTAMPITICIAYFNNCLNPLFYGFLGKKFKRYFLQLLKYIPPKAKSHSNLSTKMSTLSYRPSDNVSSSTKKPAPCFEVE
Nature of the data set: antagonism of angiotensin II type 1 receptor – cell-based, uHTS hits, selectivity assay for APJ receptor antagonist project, dose response (AID 463214).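 Also: antagonist potency against angiotensin II stimulated AT1 response.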 It is filed as functional.

The subject of data set [4] is BJ. Nature of the data set: BJ-TERT-LT-ST fibroblast viability loss – cell-based, RAS-independent, luminescence, dose response (AID 1935).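 Also: BJ fibroblasts immortalized with TERT plus LT and ST oncogenes.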 It is filed as functional. The following applies: Homo sapiens.
The nature of data set [5]: DRD fibroblast viability loss – cell-based, non-viral oncogenic, luminescence, dose response (AID 1934). The format is functional. As to conditions: Homo sapiens.
The target of data set [6] is G-protein coupled receptor 55 (Homo sapiens, UniProt Q9Y2T6). Put plainly: selective activators of receptor GPR55 – imaging, U2OS cells, beta-arrestin-GFP redistribution, primary screen (AID 1961). It is filed as functional.
The target of data set [7] is Intestinal-type alkaline phosphatase (Mus musculus, UniProt P24822). Nature of the data set: PubChem AID 488874. The format is functional.
Data set [8] has as its target T2, Intestinal-type alkaline phosphatase (Homo sapiens, UniProt P09923). Put plainly: inhibition of human intestinal alkaline phosphatase – biochemical, luminescent, uHTS hits, set 2, dose response (AID 488793). The format is functional.
In data set [9] the target is T2, Intestinal-type alkaline phosphatase. Nature of the data set: Dose Response confirmation of uHTS hits from a small molecule inhibitors of human intestinal alkaline phosphatase via a luminescent assay. [Related pubchem assays (depositor defined):AID2544, AID2574]. The format is functional.
Data set [10] has as its target T3, Alkaline phosphatase, tissue-nonspecific isozyme (Homo sapiens, UniProt P05186).
T3 sequence (P05186 whole entry): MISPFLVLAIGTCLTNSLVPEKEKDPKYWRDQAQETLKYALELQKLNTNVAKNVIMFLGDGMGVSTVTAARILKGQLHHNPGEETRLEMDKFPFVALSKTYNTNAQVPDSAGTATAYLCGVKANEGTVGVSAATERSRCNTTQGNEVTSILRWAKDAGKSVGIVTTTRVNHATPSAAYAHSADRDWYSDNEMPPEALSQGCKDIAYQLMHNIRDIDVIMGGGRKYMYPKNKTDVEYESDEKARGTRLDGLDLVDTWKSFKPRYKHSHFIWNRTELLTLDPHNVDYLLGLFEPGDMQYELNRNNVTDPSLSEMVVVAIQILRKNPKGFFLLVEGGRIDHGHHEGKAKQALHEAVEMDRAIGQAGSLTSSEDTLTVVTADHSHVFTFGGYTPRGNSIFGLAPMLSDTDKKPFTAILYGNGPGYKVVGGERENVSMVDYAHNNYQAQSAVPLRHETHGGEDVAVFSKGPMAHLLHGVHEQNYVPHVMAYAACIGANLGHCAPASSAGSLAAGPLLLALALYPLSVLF
Put plainly: inhibition of tissue-nonspecific alkaline phosphatase – biochemical, dose response (AID 488882). It is filed as functional.

The target of a further data set is Cytochrome P450 2C19 (Homo sapiens, UniProt P33261). Put plainly: Cytochrome panel assay with activity outcomes. Panel member name: p450-cyp2c19 Compounds with AC50 equal or less than 10 uM are considered active. The format is functional. The following applies: read-out: AC50.
The target of the next data set is Cytochrome P450 2D6 (Homo sapiens, UniProt P10635).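 Also: CYP2D6 member of a cytochrome P450 panel assay.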
The target of the next data set is SUMO E1/E2 (Homo sapiens, UniProt P63279+Q9UBE0+Q9UBT2). Nature of the data set: SAR analysis of SUMOylation using HTRF in an in-Vitro dose response assay. [Related pubchem assays (depositor defined):AID2006, AID2011, AID2018, AID2069, AID2658]. It is filed as functional. On the technique in general: TR-FRET usually uses a lanthanide donor and a delayed reading to cut background.

For data set [11], the target named is T4, Voltage-gated N-type calcium channel alpha-1B subunit/Amyloid beta A4 precursor protein-binding family A member 1 (Homo sapiens, UniProt Q00975+Q02410). Nature of the data set: disruptors of Mint-PDZ/N-type channel peptide interaction – biochemical, HTRF, set 2, SAR follow-up (AID 434980). It is filed as functional.
The target of data set [12] is T4, Voltage-gated N-type calcium channel alpha-1B subunit/Amyloid beta A4 precursor protein-binding family A member 1. Put plainly: disruptors of Mint-PDZ/N-type channel peptide interaction – biochemical, HTRF, SAR follow-up (AID 2489). It is filed as functional.
In data set [13] the test system is Jurkat. Nature of the data set: SAR Analysis of small molecule inhibitors of […] specific antigen receptor-induced NF-kB activation in a Jurkat cell line using a luminescence assay - Set 3. [Related pubchem assays (depositor defined):AID435022, AID435025, AID465]. The following applies: Homo sapiens. The format is functional, cell-based.
Data set [14] concerns HEK293. Put plainly: SAR Analysis of small molecule inhibitors of B-cell specific antigen receptor-induced NF-kB activation in a HEK-293T cell line using a luminescence assay - Set 2. [Related pubchem assays (depositor defined):AID435022, AID435025, AID489021]. The format is functional, cell-based. As to conditions: Homo sapiens.
The subject of data set [15] is HEK293. Put plainly: HEK293T cell viability loss, resazurin readout – resazurin fluorescence, cytotoxicity control for NF-kB activator project, SAR follow-up (AID 493251). As to conditions: Homo sapiens. It is filed as functional, cell-based.
Data set [16] has as its system Jurkat. Put plainly: blockers of NF-kB activation in T cells – Jurkat, luciferase reporter, luminescence, B- and T-cell, dose response (AID 489004).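 Also: NF-kB luciferase reporter Jurkat cells stimulated with PMA plus ionomycin.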 The format is functional, cell-based. The following applies: Homo sapiens. For orientation: Reporter assays use an easily measured gene product as a stand-in for the process of interest.
Data set [17] is described as follows: HEK-293T viability loss, compound-treated – cell-based, uHTS hits, cytotoxicity control for B/T-cell NF-kB inhibitor project, dose response (AID 489019).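 Also: IC50 reflects cytotoxicity as loss of cell viability.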 It is filed as functional.
In data set [18] the target is Acyl-homoserine lactone acylase PvdQ (Pseudomonas aeruginosa (strain LESB58), UniProt Q9I194). Nature of the data set: PvdQ acylase enzyme activity blockers – biochemical, fluorescence, plate reader and imaging, cherry-picks, dose response (AID 493231).
For a further data set, the system named is HeLa. Nature of the data set: toxicity to human HeLa cells – cell-based, 48 h, plate reader, cherry-picks, cytotoxicity control, dose response (AID 504942). The format is functional.
The target in a further data set is Melanocortin receptor 4 (Homo sapiens, UniProt P32245). It is filed as functional, cell-based.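 Also: Cell-based assay with luminescence read-out, confirmatory dose-response testing for agonist activity of biased ligands at MC4R; human U2OS cells with tagged receptor and beta-arrestin; potency of agonists that increase receptor coupling to beta-arrestin.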

The structures appear in SMILES notation. Active and inactive are the calls of the source.

T4 sequence (Q00975 whole entry): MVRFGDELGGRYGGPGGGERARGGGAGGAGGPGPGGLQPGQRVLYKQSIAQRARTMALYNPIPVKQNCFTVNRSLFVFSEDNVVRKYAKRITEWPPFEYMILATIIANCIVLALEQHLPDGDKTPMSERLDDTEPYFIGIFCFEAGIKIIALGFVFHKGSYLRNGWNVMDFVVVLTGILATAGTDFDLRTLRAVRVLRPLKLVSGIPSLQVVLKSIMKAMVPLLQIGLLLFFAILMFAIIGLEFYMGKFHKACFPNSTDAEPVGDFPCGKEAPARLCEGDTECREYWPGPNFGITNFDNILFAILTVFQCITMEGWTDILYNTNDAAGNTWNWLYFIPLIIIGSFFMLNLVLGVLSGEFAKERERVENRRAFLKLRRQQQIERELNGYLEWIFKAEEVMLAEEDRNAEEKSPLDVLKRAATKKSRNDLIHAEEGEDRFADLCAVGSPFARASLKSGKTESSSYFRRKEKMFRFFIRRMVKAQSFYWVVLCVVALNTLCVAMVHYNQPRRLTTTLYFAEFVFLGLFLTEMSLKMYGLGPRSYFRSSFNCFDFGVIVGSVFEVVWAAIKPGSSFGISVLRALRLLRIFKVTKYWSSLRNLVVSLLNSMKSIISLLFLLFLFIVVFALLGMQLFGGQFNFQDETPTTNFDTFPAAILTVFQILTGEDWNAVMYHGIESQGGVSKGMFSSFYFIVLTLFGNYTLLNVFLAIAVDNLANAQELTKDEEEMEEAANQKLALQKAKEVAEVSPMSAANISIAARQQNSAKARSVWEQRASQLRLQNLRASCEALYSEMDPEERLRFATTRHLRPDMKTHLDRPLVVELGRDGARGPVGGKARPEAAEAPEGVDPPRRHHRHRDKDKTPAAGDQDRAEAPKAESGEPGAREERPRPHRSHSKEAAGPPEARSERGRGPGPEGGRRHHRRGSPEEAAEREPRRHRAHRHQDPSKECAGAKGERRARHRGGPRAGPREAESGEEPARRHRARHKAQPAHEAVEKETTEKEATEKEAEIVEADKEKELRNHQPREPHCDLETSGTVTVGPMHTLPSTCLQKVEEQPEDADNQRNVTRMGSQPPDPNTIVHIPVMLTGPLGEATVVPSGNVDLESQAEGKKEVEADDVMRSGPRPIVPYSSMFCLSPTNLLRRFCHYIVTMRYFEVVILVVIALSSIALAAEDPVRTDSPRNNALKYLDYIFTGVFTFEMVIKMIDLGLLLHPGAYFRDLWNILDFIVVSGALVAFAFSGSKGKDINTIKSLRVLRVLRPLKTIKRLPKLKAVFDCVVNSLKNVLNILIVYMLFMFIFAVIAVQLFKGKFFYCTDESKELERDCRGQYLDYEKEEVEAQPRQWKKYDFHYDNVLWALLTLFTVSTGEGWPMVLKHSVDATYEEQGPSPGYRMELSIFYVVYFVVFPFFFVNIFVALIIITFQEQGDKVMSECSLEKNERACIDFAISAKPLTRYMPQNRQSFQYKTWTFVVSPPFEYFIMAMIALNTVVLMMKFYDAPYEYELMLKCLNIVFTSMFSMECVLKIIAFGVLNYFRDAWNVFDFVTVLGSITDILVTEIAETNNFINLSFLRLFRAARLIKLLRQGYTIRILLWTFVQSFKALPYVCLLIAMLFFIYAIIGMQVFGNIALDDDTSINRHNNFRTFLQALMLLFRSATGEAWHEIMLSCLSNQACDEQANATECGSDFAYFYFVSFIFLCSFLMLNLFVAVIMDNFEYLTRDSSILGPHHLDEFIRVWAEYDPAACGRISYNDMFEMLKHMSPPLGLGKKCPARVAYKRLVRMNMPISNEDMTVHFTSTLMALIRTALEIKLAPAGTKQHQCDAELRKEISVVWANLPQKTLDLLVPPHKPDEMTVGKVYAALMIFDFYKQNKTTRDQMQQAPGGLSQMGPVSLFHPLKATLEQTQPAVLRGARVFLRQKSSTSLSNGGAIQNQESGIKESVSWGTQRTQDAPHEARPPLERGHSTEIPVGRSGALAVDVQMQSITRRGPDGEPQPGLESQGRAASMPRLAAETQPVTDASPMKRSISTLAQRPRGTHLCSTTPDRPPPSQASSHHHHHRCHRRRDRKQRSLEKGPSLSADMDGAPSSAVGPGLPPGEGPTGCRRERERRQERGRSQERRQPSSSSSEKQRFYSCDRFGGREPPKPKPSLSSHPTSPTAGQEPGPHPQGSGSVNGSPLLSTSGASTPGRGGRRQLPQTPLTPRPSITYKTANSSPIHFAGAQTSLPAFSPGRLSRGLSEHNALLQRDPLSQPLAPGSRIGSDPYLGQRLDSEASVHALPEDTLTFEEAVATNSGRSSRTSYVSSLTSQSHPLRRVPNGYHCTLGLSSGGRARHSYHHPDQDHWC
T4 sequence (Q02410 whole entry): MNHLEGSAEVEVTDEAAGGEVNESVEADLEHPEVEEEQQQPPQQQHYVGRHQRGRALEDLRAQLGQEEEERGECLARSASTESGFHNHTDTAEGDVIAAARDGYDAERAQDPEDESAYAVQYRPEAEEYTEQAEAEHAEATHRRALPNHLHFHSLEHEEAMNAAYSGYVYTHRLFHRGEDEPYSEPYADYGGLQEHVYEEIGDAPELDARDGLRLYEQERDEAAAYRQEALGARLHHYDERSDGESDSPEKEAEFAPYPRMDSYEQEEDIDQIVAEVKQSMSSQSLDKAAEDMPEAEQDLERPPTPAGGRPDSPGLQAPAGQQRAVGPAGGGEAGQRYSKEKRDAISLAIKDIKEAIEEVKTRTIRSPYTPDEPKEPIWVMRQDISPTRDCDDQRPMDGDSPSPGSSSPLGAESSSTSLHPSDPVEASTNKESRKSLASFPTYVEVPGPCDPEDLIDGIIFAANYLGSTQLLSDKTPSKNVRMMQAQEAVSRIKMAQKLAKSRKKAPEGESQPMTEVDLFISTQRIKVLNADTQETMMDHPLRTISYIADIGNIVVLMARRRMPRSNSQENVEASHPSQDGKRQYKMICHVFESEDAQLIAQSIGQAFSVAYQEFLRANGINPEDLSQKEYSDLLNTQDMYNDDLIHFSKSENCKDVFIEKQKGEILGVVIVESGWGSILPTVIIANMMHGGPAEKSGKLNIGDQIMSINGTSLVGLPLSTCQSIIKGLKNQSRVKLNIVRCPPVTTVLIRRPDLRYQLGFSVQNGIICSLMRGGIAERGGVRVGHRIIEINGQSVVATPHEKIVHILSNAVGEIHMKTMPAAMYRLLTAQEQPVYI
T2 sequence (P09923 whole entry): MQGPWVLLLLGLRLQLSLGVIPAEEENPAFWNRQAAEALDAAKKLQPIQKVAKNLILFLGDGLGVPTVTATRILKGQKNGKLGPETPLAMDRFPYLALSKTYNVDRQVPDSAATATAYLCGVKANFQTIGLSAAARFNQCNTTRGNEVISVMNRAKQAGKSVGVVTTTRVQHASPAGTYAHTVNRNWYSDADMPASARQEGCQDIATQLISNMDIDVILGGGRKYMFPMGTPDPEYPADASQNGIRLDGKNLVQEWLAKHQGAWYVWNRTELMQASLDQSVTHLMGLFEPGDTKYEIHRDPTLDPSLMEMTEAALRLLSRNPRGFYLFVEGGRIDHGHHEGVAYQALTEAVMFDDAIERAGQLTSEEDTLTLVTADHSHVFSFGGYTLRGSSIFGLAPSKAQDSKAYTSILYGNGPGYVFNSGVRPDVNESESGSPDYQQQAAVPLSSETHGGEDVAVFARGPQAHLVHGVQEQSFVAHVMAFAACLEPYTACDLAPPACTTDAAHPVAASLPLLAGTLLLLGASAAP
Sequence of Intestinal-type alkaline phosphatase (Mus musculus, UniProt P24822) (P24822 whole entry): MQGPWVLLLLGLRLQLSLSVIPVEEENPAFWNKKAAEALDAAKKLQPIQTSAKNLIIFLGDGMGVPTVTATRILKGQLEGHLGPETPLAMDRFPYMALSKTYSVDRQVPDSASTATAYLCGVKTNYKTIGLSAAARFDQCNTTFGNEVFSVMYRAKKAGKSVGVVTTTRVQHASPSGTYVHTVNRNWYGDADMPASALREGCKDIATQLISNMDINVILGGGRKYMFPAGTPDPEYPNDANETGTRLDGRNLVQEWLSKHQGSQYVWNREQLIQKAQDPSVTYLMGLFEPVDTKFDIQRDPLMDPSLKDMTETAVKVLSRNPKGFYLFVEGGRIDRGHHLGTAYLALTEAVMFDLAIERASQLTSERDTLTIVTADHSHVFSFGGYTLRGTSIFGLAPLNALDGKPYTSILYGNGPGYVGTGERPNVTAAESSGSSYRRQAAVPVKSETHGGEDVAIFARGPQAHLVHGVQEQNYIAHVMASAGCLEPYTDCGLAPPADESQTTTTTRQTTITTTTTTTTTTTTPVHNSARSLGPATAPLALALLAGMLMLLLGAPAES
Sequence of Cytochrome P450 2D6 (P10635 whole entry): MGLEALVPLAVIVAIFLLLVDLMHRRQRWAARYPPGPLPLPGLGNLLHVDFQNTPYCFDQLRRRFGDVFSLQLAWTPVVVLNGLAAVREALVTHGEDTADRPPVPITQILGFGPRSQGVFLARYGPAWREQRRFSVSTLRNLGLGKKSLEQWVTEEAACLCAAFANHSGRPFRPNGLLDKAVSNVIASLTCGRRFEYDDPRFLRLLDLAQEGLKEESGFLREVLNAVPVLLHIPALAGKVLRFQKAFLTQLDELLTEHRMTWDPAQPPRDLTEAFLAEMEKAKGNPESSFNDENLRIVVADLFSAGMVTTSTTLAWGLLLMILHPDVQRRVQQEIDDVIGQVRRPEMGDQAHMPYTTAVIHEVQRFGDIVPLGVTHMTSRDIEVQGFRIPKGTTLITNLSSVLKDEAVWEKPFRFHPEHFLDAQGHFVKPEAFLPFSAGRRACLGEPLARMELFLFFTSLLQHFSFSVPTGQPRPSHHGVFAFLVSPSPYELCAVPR
Sequence of G-protein coupled receptor 55 (Q9Y2T6 whole entry): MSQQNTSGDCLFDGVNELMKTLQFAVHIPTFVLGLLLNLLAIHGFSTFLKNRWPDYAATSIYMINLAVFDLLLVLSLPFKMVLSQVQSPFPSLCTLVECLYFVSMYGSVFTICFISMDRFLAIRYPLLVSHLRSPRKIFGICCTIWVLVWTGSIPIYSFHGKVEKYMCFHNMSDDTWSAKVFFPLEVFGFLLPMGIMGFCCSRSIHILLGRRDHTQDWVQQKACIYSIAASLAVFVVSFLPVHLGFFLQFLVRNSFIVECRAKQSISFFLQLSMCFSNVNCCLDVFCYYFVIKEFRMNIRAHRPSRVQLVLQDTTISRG

The term EC50 denotes the concentration needed to bring the measured effect to its halfway point. What is called IC50 is the concentration needed to halve the response being measured. Turning to `C=CCN1C(=O)/C(=C\C=C2\N(C)c3ccccc3C2(C)C)SC1=S`, the EC50 was > 150 µM (not active) in the data set with BJ [1]; > 40 µM (inactive) on Beta-galactosidase; 42.9 µM (active) with BJ [2]; > 150 µM (not active) in the data set on BJ [4]; > 150 µM (not active) in data set [5]; > 32 µM (inactive) in [6]. The IC50 in data set [3] is > 40 µM (not active); in [7], 33.4 µM (active); in [8] it was 11 µM (active); in data set [9], 15.9 µM (inactive); in data set [10], 8.19 µM (active).
What is called AC50 is the midpoint of the concentration-response curve, whichever way the signal moves. In the case of `NC(=O)CC(c1ccccc1)c1ccco1` (centres undefined), the AC50 at Cytochrome P450 2C19 was 28.2 µM (inconclusive); at Cytochrome P450 2D6, “inconclusive”.
For `COc1ccc(CCNC(=O)COC(=O)c2cc(-c3ccco3)nc3ccccc23)cc1`, the IC50 on SUMO E1/E2 was 11.5 µM (active); in [11], 12.2 µM (active); in data set [12], 32.9 µM (active).
Take `CNC(=O)CCc1nc(-c2ccc(C)cc2)no1`: the IC50 in the data set on Jurkat [13], with HEK293 [14] and in the data set with HEK293 [15] was > 80 µM (inactive) each time.
As to `CC(=O)OC(C)(C)/C=C/C(=O)[C@](C)(O)C1[C@H](O)C[C@@]2(C)C3CC=C4C(C[C@H](O)C(=O)C4(C)C)[C@]3(C)C(=O)C[C@]12C` (some centres undefined), the IC50 with Jurkat [16] is 3.03 µM (active); in data set [17], > 80 µM (inactive).
For the compound `Cc1ccc(O)c(C(=O)/C=C/c2ccc3c(c2)OCCO3)c1`, the AC50 in data set [18] is 1.14 µM (active); in the data set with HeLa it was 73.2 µM (active). At Melanocortin receptor 4, the EC50 was > 89.2 µM (inactive).

Values taken from ChEMBL document CHEMBL1201862, “PubChem BioAssay data set” (2004).
